Reference: BindingDB's records for doi:10.1016/j.bmcl.2011.09.019 (Itherx Pharmaceuticals, 2011)

Test: Inhibition of human SRB1-mediated Hepatitis C virus genotype 2a entry into human 293T cells by immunoblotting

Row | Structure (SMILES) | IC50 [nM]
1 | COC(=O)c1ccc2c(c1)c1ccccc1n2CCCN1C[C@@H](C)N[C@@H](C)C1 | 230
2 | CCOC(=O)c1ccc2c(c1)c1ccccc1n2CCCN1C[C@@H](C)N[C@@H](C)C1 | 600
3 | CC(C)OC(=O)c1ccc2c(c1)c1ccccc1n2CCCN1C[C@@H](C)N[C@@H](C)C1 | 630
4 | C[C@@H]1CN(CCCn2c3ccccc3c3ccccc32)C[C@H](C)N1 [9-(3-(3,5-dimethylpiperazin-1-yl)propyl)-9H-carbazole] | 1200
